From US9120749B2, “Quinoline derivatives and MELK inhibitors containing the same” (ONCOTHERAPY SCIENCE, INC., priority 2010, dated 2015)
Where a name gives a salt, the structure may show the parent alone. Read-outs that look alike come from different tables or passages of the source.

Tests used:
MELK = MELK (Homo sapiens, UniProt Q14680); test: Kinase assay: MELK activity, phosphorylation of FITC-labeled histone H3 peptide measured by IMAP fluorescence polarization; type: biochemical; settings: read-out: IC50 (μM) (kinase assay)
Experimental: MELK activity was determined in the presence or absence of compounds using fluorescein isothiocyanate-labeled (FITC-labeled) histone H3 peptide as a substrate. […] Test compounds were dissolved in DMSO at 12.5 mM and then serially diluted as the DMSO concentration in the assays to be 1%. […] The reaction was stopped by the addition of three fold assay volume of progressive binding solution. Following 0.5 hour incubation at room temperature, fluorescence polarization was measured by Wallac EnVision 2103 multilabel reader (PerkinElmer).

HT-1197 cells = test: Cell-based assay: anti-proliferative activity, Cell Counting Kit-8, 72 hours (HT-1197, negative control without MELK expression); settings: Homo sapiens, HT1197, 72 h, 72 hours
Experimental: (§1) To evaluate the expression status of MELK in several cell lines, western blot analysis was performed using crude cell lysate collected from those cells. Anti-MELK antibody (clone 31, BD Biosciences) was used to visualize the expression.
(§2) Active candidate inhibitors against MELK were evaluated for their target-specific cytotoxicity using T47D, A549, BT-549, and HT-1197 cells was used for negative control. 100 micro-L of cell suspension was seeded onto 96-well microtiter plate (ViewPlate-96FTC, PerkinElmer). The initial cell concentration of T47D, A549, BT-549, and HT-1197 were 3,000 cells/well, 2,000 cells/well and 2,500 cells/well, respectively. Cellular growth was determined using Cell Counting Kit-8 (DOJINDO) at 72 hours after the exposure of the candidate inhibitors. […] Accurate IC50 values were calculated as described previously.

T47D cells = test: Cell-based assay: anti-proliferative activity, Cell Counting Kit-8, 72 hours (T47D); settings: Homo sapiens, T47D, 72 h
Experimental: as §1, §2

[1] = HT1197 cells (negative control)
[2] = HT1197 cells (negative control, no MELK expression)
[3] = MELK kinase assay, IMAP fluorescence polarization, 50 micro-M ATP

MELK, sequence (Q14680 whole entry, looked up): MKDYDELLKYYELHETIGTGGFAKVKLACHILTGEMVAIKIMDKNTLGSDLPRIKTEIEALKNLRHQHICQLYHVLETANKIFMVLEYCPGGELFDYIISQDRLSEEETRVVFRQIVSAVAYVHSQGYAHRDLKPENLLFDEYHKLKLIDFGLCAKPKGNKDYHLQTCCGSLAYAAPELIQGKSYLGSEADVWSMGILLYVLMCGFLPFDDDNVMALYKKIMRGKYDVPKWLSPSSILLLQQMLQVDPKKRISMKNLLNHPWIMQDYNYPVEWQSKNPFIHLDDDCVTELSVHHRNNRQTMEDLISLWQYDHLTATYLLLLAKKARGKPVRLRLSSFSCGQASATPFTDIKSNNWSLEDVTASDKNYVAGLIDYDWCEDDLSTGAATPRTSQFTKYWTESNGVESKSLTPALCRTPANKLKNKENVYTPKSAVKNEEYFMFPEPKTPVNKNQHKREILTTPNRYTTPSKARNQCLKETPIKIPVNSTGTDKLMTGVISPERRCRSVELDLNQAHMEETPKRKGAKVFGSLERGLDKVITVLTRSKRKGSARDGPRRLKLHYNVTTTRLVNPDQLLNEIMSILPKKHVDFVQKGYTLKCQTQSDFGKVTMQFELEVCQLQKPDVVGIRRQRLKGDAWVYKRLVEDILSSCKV

| SMILES | IC50 (T47D cells) [µM] | IC50 (MELK; [3]) [µM] | also measured |
| --- | --- | --- | --- |
| N[C@H]1CC[C@H](Nc2c(C(=O)C3CC3)cnc3c(F)cc(-c4cc(Cl)c(O)c(Cl)c4)cc23)CC1 [Example 565] | 0.3 |  | IC50 (MELK): 2.1 µM; IC50 (HT-1197 cells; [1]): 10 µM |
| COc1cc(-c2cc(F)c3ncc(C(=O)C4CC4)c(N[C@H]4CC[C@H](N)CC4)c3c2)cc(Cl)c1O [Example 564] | 0.43 |  | IC50 (MELK): 0.26 µM; IC50 (HT-1197 cells; [1]): 1.8 µM |
| CN(C)CC1CCN(c2c(C(=O)C3CC3)cnc3ccc(-c4ccc(C(=O)O)cc4)cc23)CC1 [Example 492, 4-(3-(cyclopropanecarbonyl)-4-(4-((dimethylamino)methyl)piperidin-1-yl)quinolin-6-yl)benzoic acid] | 10 |  | IC50 (MELK): 1.4 µM; IC50 (HT-1197 cells; [2]): 10 µM |
| CN(C)CC1CCN(c2c(C(=O)C3CC3)cnc3ccc(-c4ccc5c(c4)CC(=O)N5)cc23)CC1 [Example 474] | 10 |  | IC50 (HT-1197 cells; [2]): 10 µM |
| CN(C)Cc1ccc(Nc2c(C(=O)C3CC3)cnc3c(F)cc(-c4cc(F)c(O)c(Cl)c4)cc23)cc1 [Example 563, (6-(3-chloro-5-fluoro-4-hydroxyphenyl)-4-(4-((dimethylamino)methyl)phenylamino)-8-fluoroquinolin-3-yl)(cyclopropyl)methanone] | 1.3 |  | IC50 (MELK): 1.8 µM; IC50 (HT-1197 cells; [1]): 3.3 µM |
| CN(C)CC1CCN(c2c(C(=O)C3CC3)cnc3ccc(-c4ccc(OC(F)F)cc4)cc23)CC1 [Example 458] | 7.2 |  | IC50 (HT-1197 cells; [2]): 8.4 µM |
| COc1cc(-c2cc(F)c3ncc(C(=O)C4CC4)c(Nc4ccc(CN(C)C)cc4)c3c2)cc(Cl)c1O [Example 551, (6-(3-chloro-4-hydroxy-5-methoxyphenyl)-4-(4-((dimethylamino)methyl)phenylamino)-8-fluoroquinolin-3-yl)(cyclopropyl)methanone] | 2 |  | IC50 (MELK): 1.1 µM; IC50 (HT-1197 cells; [1]): 6.9 µM |
| CC(=O)c1c(C)nc2ccc(-c3cc(F)c(O)c(Cl)c3)cc2c1N[C@H]1CC[C@H](CN(C)C)CC1 [Example 834, 1-(6-(3-chloro-5-fluoro-4-hydroxy-phenyl)-4-(1R,4R)-4-((dimethylamino)methyl)cyclohexylamino)-2-methyl-quinolin-3-yl)ethanone hydrochloride] |  | 0.82 |  |
| O=C(c1cnc2ccc(-c3cc(Cl)c(O)c(Cl)c3)cc2c1Nc1ccc(CN2CCC(F)(F)C2)cc1)C1CC1 [Example 581, cyclopropyl(6-(3,5-dichloro-4-hydroxyphenyl)-4-(4-((3,3-difluoropyrrolidin-1-yl)methyl)phenylamino)quinolin-3-yl)methanone] | 1.4 |  | IC50 (MELK): 0.63 µM; IC50 (HT-1197 cells; [1]): 5.3 µM |
| COc1cc(-c2ccc3ncc(C(C)=O)c(N[C@H]4CC[C@H](N)CC4)c3c2)cc(Cl)c1O [Example 940, 1-(4-((1R,4R)-4-aminocyclohexylamino)-6-(3-chloro-4-hydroxy-5-methoxyphenyl)quinolin-3-yl)ethanone, hydrochloride] |  | 0.0012 |  |
| COc1cc(-c2ccc3ncc(C(=O)C4CC4)c(NCC(=O)N4CCN(C)CC4)c3c2)cc(Cl)c1O [Example 395, 2-(6-(3-chloro-4-hydroxy-5-methoxyphenyl)-3-(cyclopropanecarbonyl)quinolin-4-ylamino)-1-(4-methylpiperazin-1-yl)ethanone] | 10 |  | IC50 (MELK; 50 micro-M ATP, FITC-labeled histone H3 peptide substrate, IMAP fluorescence polarization): 1 µM; IC50 (HT-1197 cells; [2]): 10 µM |
| CC(=O)c1cnc2ccc(-c3ccc4nc[nH]c4c3)cc2c1Nc1ccc(N2CCC(N(C)C)C2)nc1 (stereo not drawn) [Example 905, 1-(6-(1H-benzo[d]imidazol-6-yl)-4-((6-(3-(dimethylamino)pyrrolidin-1-yl)pyridin-3-yl)amino)quinolin-3-yl) ethanone hydrochloride] |  | 0.11 |  |
| CC(=O)c1cnc2ccc(-c3cc(F)c(O)c(Cl)c3)cc2c1N[C@H]1CC[C@H](CN(C)C)CC1 [Example 943, 1-(6-(3-chloro-5-fluoro-4-hydroxyphenyl)-4-((trans-4-((dimethylamino)methyl)cyclohexyl)amino)quinolin-3-yl)ethanone dihydrochloride] |  |  | IC50 (MELK; MELK kinase assay, IMAP fluorescence polarization, 50 micro-M ATP, dihydrochloride): 0.004 µM |
| CC(=O)c1cnc2ccc(-c3ccncc3)cc2c1N[C@H]1CC[C@H](CN(C)C)CC1 [Example 908, 1-(4-((1R,4R)-4-((dimethylamino)methyl)cyclohexyl)amino)-6-(pyridin-4-yl)quinolin-3-yl)ethanone hydrochloride] |  | 0.23 |  |
| O=C(c1cnc2ccc(-c3cc(Cl)c(O)c(Cl)c3)cc2c1Nc1ccc(CN2CCCC2)cc1)C1CC1 [Example 366, Cyclopropyl{6-(3,5-dichloro-4-hydroxyphenyl)-4-[4-(pyrrolidin-1-ylmethyl)phenylamino]quinolin-3-yl}methanone] |  | 0.15 |  |
| CC(=O)c1cnc2ccc(-c3cc(Cl)c(O)c(Cl)c3)cc2c1Nc1ccc(CN(C)C)cc1 [Example 374] |  | 0.0066 |  |
| CC(=O)c1cnc2ccc(-c3ccc4nc[nH]c4c3)cc2c1Nc1cccc(CCN2CCCC2)c1 [Example 896, 1-(6-(1H-benzo[d]imidazol-6-yl)-4-((3-(2-(pyrrolidin-1-yl)ethyl)phenyl)amino)quinolin-3-yl)ethanone hydrochloride] |  | 0.22 |  |
| CC(=O)c1cnc2cc(C)c(-c3cc(Cl)c(O)c(Cl)c3)cc2c1Nc1ccc(CN(C)C)cc1 [Example 847, 1-(6-(3,5-dichloro-4-hydroxyphenyl)-4-(4-((dimethylamino)methyl)phenyl-amino)-7-methylquinolin-3-yl) ethanone hydrochloride] |  | 0.55 |  |
| CC(=O)c1cnc2ccc(-c3cc(Cl)c(O)c(Cl)c3)cc2c1N[C@H]1CC[C@H](N)CC1 [Example 939, 1-(4-((1R,4R)-4-aminocyclohexylamino)-6-(3,5-dichloro-4-hydroxyphenyl)quinolin-3-yl)ethanone, hydrochloride] |  | 0.0034 |  |
| CC(=O)c1c(C)nc2ccc(-c3cc(F)c(O)c(Cl)c3)cc2c1Nc1ccc(N2CCN(C)CC2)nc1 [Example 837, 1-(6-(3-chloro-5-fluoro-4-hydroxy-phenyl)-2-methyl-4-(6-(4-methyl-piperazin-1-yl)pyridin-3-ylamino)quinolin-3-yl)ethanone hydrochloride] |  | 0.54 |  |
| CC(=O)c1cnc2cc(C)c(-c3cc(Cl)c(O)c(Cl)c3)cc2c1N[C@H]1CC[C@H](CN(C)C)CC1 [Example 857] |  | 3.4 |  |
| CC(C)C(=O)c1cnc2ccc(-c3cc(F)c(O)c(F)c3)cc2c1N[C@H]1CC[C@H](N)CC1 [Example 938, 1-(4-((1R,4R)-4-aminocyclohexylamino)-6-(3,5-difluoro-4-hydroxyphenyl)quinolin-3-yl)-2-methylpropan-1-one, hydrochloride] |  | 0.017 |  |
| CC(=O)c1cnc2cc(C)c(-c3cc(F)c(O)c(Cl)c3)cc2c1N[C@H]1CC[C@H](CN(C)C)CC1 [Example 859, 1-(6-(3-chloro-5-fluoro-4-hydroxy-phenyl)-4-((1R,4R)-4-((dimethylamino)methyl)cyclohexyl)amino)-7-methyl-quinolin-3-yl)ethanone hydrochloride] |  | 0.84 |  |
| CC(=O)c1cnc2ccc(-c3cc(F)c(O)c(Cl)c3)cc2c1N[C@H]1CC[C@H](CN(C)C)CC1 [Example 378, 1-(6-(3-chloro-5-fluoro-4-hydroxyphenyl)-4-((trans)-4-((dimethylamino)methyl)cyclohexylamino)quinolin-3-yl) ethanone] |  | 0.0061 |  |
| CC(=O)c1cnc2ccc(-c3ccc(-c4ccc(O)cc4)cc3)cc2c1Nc1cccc(CCN2CCCC2)c1 [Example 888, 1-(6-(4′-hydroxy-[1,1′-biphenyl]-4-yl)-4-((3-(2-(pyrrolidin-1-yl)ethyl)phenyl)amino)quinolin-3-yl) ethanone hydrochloride] |  | 3.4 |  |
| CN1CCN(c2ccc(Nc3c(C(=O)C4CC4)cnc4cc(C(F)(F)F)c(-c5cc(F)c(O)c(Cl)c5)cc34)cn2)CC1 [Example 840, (6-(3-chloro-5-fluoro-4-hydroxyphenyl)-4-(6-(4-methylpiperazin-1-yl)pyridin-3-ylamino)-7-(trifluoromethyl)quinolin-3-yl)(cyclopropyl)methanone] |  | 3.1 |  |
| COc1ccc2c(c1)CN(c1ccc3ncc(C(C)=O)c(N[C@H]4CC[C@H](CN(C)C)CC4)c3c1)C2=O [Example 933] |  | 1.2 |  |
| CC(=O)c1c(C)nc2ccc(-c3cc(Cl)c(O)c(Cl)c3)cc2c1N[C@H]1CC[C@H](CN(C)C)CC1 [Example 833, 1-(6-(3,5-dichloro-4-hydroxyphenyl)-4-(1R,4R)-4-((dimethylamino)methyl)cyclohexylamino)-2-methylquinolin-3-yl)ethanone hydrochloride] |  | 0.17 |  |
| CC(=O)c1cnc2ccc(-c3cc(Cl)c(O)c(Cl)c3)cc2c1Nc1ccc(CN(C)C)cc1 [Example 942, 1-(6-(3,5-dichloro-4-hydroxyphenyl)-4-(4-((dimethylamino)methyl)phenylamino)quinolin-3-yl)ethanone] |  | 0.0022 |  |
